Drawing on a melting point compilation (Tetko et al.; mined from patent text by program, amines drawn as free bases though some values may be those of a salt), this text covers melting point for 33 molecules.

A value given as a limit tells only on which side of the number the result lay.

In general, melting point refers to the temperature, or range, at which the solid turns liquid. The molecule `CCOc1cccc(-c2ccc(C3=CCN(S(=O)(=O)C4(C(=O)O)CCOCC4)CC3)cc2C)c1` showed a melting point of 203 to 205 °C.
Next, `CN1CCC(OC(c2ccccc2)c2nc3ccccc3s2)CC1` (stereo not drawn): 115 °C; `CCOc1cc(N)c(Cl)cc1C(=O)NC[C@H]1CN(CC2CCN(C(=O)N(C)OC)CC2)CCO1`: 127 to 129 °C; `N#Cc1ccc(-c2cccc(-c3nc4cc(C#N)ccc4[nH]3)c2)nc1`: 281 to 282 °C.
Then `O=[N+]([O-])c1ccc(S(=O)(=O)N2CC3CN(Cc4ccccc4)CC(C2)O3)cc1`, with 98.4 to 101 °C; and `COC1(OCc2ccccc2)C=C2C(=CC1)CCN(CCO)C2C1(c2ccccc2Cl)CC1` (stereo not drawn), with 65 to 70 °C; and `CCCS(=O)c1cc(OCCCS(=O)Cc2ccccc2)ccc1C` (stereo not drawn), with 92 to 94 °C.
Next, `COc1ccc(C(=O)CC(=O)C(F)F)cc1F`: 70 to 72 °C; `Cc1ccc(S(=O)(=O)Oc2cccnc2)cc1`: 76 to 78 °C; `O=C(O)Cn1c(-c2ccc([N+](=O)[O-])cc2)nc2cccnc21`: 249 to 251 °C.
In turn, `COC(=O)c1cc(OC)c(OC)c([N+](=O)[O-])c1` registered a melting point of 75 to 76 °C.
Next, `CNCC(O)C1=CC2(CCCC2)c2ccccc21` (stereo not drawn): 75 to 77 °C.
Then `CC(C)(C)OC(=O)c1ccc(C#Cc2cnc3nc(NC(=O)C(C)(C)C)nc(O)c3c2)cc1`, with over 250 °C; and `CC(O)COc1c2ccccc2c(C=O)c2ccccc12` (stereo not drawn), with 84 to 86 °C; and `O=C1Nc2ccccc2C1=c1[nH]c(=O)c(=Cc2ccc(OCc3ccccc3)cn2)[nH]c1=O`, with over 300 °C.
Next, `COCCOc1ccc(CCC(=O)NS(=O)(=O)c2ccc(Cl)cc2)c(Oc2ncc(C(F)(F)F)cc2Cl)c1`: 140 to 142 °C.
In turn, `COCCc1nc2c(N)nc3ccccc3c2n1CCOCCNC(=O)N1CCOCC1` came in with a melting point of 164 to 166 °C.
Take `Cn1c(=O)ccc2cc(COc3cc(F)cc(C4CCOCC4)c3)ccc21`: the melting point lay in the range of 126 to 127 °C.
Then `O=C(NCc1ccc(F)cc1)Nc1ccc(CN2C(=O)[C@H]3CCC[C@H]3N(C(=O)CN3C(=O)c4ccccc4C3=O)c3ccccc32)cc1` (relative stereo), with 154 to 156 °C; and `NC(=O)c1ccc(-c2cccc3cc(Cc4cccc(C(F)(F)F)c4)sc23)nc1`, with 222 to 223 °C; and `Cc1ccccc1-c1c(NC(=O)Nc2c(C)cccc2C(C)C)c(=O)n(C)c2ccc(Cl)cc12`, with 195 to 196 °C.
Turning to `Cc1cccc(N2CCN(CCCCc3ccc(C(CCC(=O)O)=NO)cc3)CC2)c1`, the melting point lay in the range of 175 to 177 °C.
Next, `CCc1cccc(CC)c1NC(=O)C1c2ccccc2COc2ccc(C(C)C)cc21` (stereo not drawn): 170 °C; `N#CCc1c(Cl)nc(-c2ccccc2)n1Cc1ccccc1`: 121 to 122 °C.
The molecule `COC(=O)[C@H](C)NC(=O)CCn1cc(C2=C(c3cn(C)c4ccccc34)C(=O)NC2=O)c2ccccc21` showed a melting point of 142 to 149 °C.
Then `CCOc1ccc2nc(CN3CCN(c4ccc(Cl)cc4Cl)CC3)cn2c1`, with 171 to 172 °C.
Next, `CCCCc1cc2c(C)n(C)nc2c(N)n1`: 130 to 131 °C; `O=C(Nc1cccc2c(NN3CCOC3=O)ccnc12)c1c(Cl)cccc1Cl`: over 250 °C.
Then `CCOCn1c(N)c(C#N)c2c(N)ncnc21`, with 229 to 230 °C.
The molecule `CC1=C(c2cccc(C(F)(F)F)c2)n2ncc3c(=O)nc(NC(C)C)n(c32)C1` showed a melting point of 284 to 286 °C.
Next, `CCCc1nnc2c(NC3CCCC3)nc3ccccc3n12`: 186 to 188 °C; `Cc1ccc(-c2nc3ccc(CN4CCN(C)CC4)cc3[nH]2)cc1C#Cc1ccc(NC2CC2)nn1`: 145 to 146 °C.
Next, `CC(CC(O)(C(=O)O)C(F)(F)F)c1ccccc1` (stereo not drawn): 145 to 146 °C.
